Measurements taken from PubChem BioAssay (NCI).
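Test compounds were applied to cells in 96-well plates for 48 hours at 5 doses. At the GI50, growth is halved. TGI: total growth inhibition.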

What was measured:
Test in all cases: NCI tumour cell line growth inhibition, 48 h
T-47D breast = system: T-47D breast
RXF 393 renal = system: RXF 393 renal
SW-620 colon = system: SW-620 colon
A498 renal = system: A498 renal
MALME-3M melanoma = system: MALME-3M melanoma
HOP-62 NSCLC = system: HOP-62 NSCLC
TK-10 renal = system: TK-10 renal
KM12 colon = system: KM12 colon
SK-MEL-28 melanoma = system: SK-MEL-28 melanoma
SN12K1 renal = system: SN12K1 renal
HCT-116 colon = system: HCT-116 colon
SNB-19 CNS = system: SNB-19 CNS
XF 498 CNS = system: XF 498 CNS
SF-268 CNS = system: SF-268 CNS
A549 NSCLC = system: A549 NSCLC
IGROV1 ovarian = system: IGROV1 ovarian
RPMI-8226 leukemia = system: RPMI-8226 leukemia
NCI-H522 lung = system: NCI-H522 lung
OVCAR-3 ovarian = system: OVCAR-3 ovarian
LOX IMVI melanoma = system: LOX IMVI melanoma
K-562 leukemia = system: K-562 leukemia
DMS 273 small cell lung = system: DMS 273 small cell lung
SN12C renal = system: SN12C renal
HOP-92 NSCLC = system: HOP-92 NSCLC
HT29 colon = system: HT29 colon
OVCAR-5 ovarian = system: OVCAR-5 ovarian
HOP-18 NSCLC = system: HOP-18 NSCLC
MDA-MB-435 = system: MDA-MB-435
OVCAR-8 ovarian = system: OVCAR-8 ovarian
UO-31 renal = system: UO-31 renal
NCI-H23 lung = system: NCI-H23 lung
SNB-78 CNS = system: SNB-78 CNS
MDA-N = system: MDA-N
P388/ADR leukemia = system: P388/ADR leukemia
DLD-1 colon = system: DLD-1 colon
OVCAR-4 ovarian = system: OVCAR-4 ovarian
HL-60(TB) leukemia = system: HL-60(TB) leukemia
HCC-2998 colon = system: HCC-2998 colon
ACHN renal = system: ACHN renal
COLO 205 colon = system: COLO 205 colon
EKVX NSCLC = system: EKVX NSCLC
HS 578T breast = system: HS 578T breast
M14 melanoma = system: M14 melanoma
BT-549 breast = system: BT-549 breast
CAKI-1 renal = system: CAKI-1 renal
NCI/ADR-RES ovarian = system: NCI/ADR-RES ovarian
SK-MEL-2 melanoma = system: SK-MEL-2 melanoma
MCF7 breast = system: MCF7 breast
DMS 114 small cell lung = system: DMS 114 small cell lung
SF-539 CNS = system: SF-539 CNS
UACC-62 melanoma = system: UACC-62 melanoma
P388 leukemia = system: P388 leukemia
SK-OV-3 ovarian = system: SK-OV-3 ovarian
DU-145 prostate = system: DU-145 prostate
SK-MEL-5 melanoma = system: SK-MEL-5 melanoma
U251 CNS = system: U251 CNS
M19-MEL melanoma = system: M19-MEL melanoma
NCI-H226 lung = system: NCI-H226 lung
MOLT-4 leukemia = system: MOLT-4 leukemia
SF-295 CNS = system: SF-295 CNS
PC-3 prostate = system: PC-3 prostate
KM20L2 colon = system: KM20L2 colon
HCT-15 colon = system: HCT-15 colon
UACC-257 melanoma = system: UACC-257 melanoma
MDA-MB-231 breast = system: MDA-MB-231 breast
786-0 renal = system: 786-0 renal
NCI-H460 lung = system: NCI-H460 lung
SNB-75 CNS = system: SNB-75 CNS
CCRF-CEM leukemia = system: CCRF-CEM leukemia

## COC(=O)C12OCC34C(CC5C(C)=C(O)C(=O)CC5(C)C3C(O)C1O)OC(=O)C(OC(=O)C=C(C)C)C24 (configuration not stated)
T-47D breast
  TGI: 0.0789 µM
RXF 393 renal
  GI50: 0.231 µM
SW-620 colon
  GI50: 0.231 µM
  TGI: > 500 µM
A498 renal
  TGI: > 500 µM
MALME-3M melanoma
  GI50: < 0.215 µM
HOP-62 NSCLC
  TGI: > 500 µM
TK-10 renal
  TGI: 0.582 µM
KM12 colon
  GI50: < 0.215 µM
  TGI: > 500 µM
SK-MEL-28 melanoma
  GI50: < 0.215 µM
SN12K1 renal
  TGI: > 500 µM
HCT-116 colon
  GI50: 0.226 µM
SNB-19 CNS
  GI50: < 0.215 µM
  TGI: > 500 µM
XF 498 CNS
  TGI: > 476 µM
SF-268 CNS
  GI50: 0.344 µM
  TGI: > 500 µM
A549 NSCLC
  TGI: > 500 µM
IGROV1 ovarian
  TGI: > 500 µM
RPMI-8226 leukemia
  TGI: > 500 µM
NCI-H522 lung
  GI50: < 0.215 µM
OVCAR-3 ovarian
  TGI: > 500 µM
LOX IMVI melanoma
  TGI: > 500 µM
K-562 leukemia
  GI50: < 0.215 µM
DMS 273 small cell lung
  TGI: > 500 µM
SN12C renal
  GI50: 0.32 µM
HOP-92 NSCLC
  TGI: 494 µM
HT29 colon
  GI50: < 0.215 µM
  TGI: > 500 µM
OVCAR-5 ovarian
  GI50: 0.245 µM
HOP-18 NSCLC
  TGI: > 500 µM
MDA-MB-435
  TGI: 0.905 µM
OVCAR-8 ovarian
  GI50: 0.222 µM
UO-31 renal
  GI50: 0.576 µM
NCI-H23 lung
  GI50: < 0.215 µM
SNB-78 CNS
  TGI: > 500 µM
MDA-N
  TGI: 0.481 µM
P388/ADR leukemia
  TGI: > 500 µM
DLD-1 colon
  TGI: > 79.3 µM
OVCAR-4 ovarian
  GI50: > 500 µM
HL-60(TB) leukemia
  TGI: > 500 µM
HCC-2998 colon
  GI50: < 0.156 µM
ACHN renal
  TGI: 0.463 µM
COLO 205 colon
  TGI: > 500 µM
EKVX NSCLC
  TGI: > 500 µM
HS 578T breast
  TGI: 2.03 µM
M14 melanoma
  TGI: 0.359 µM
BT-549 breast
  TGI: 0.726 µM
CAKI-1 renal
  GI50: 0.899 µM
NCI/ADR-RES ovarian
  GI50: 4.34 µM
SK-MEL-2 melanoma
  GI50: < 0.215 µM
MCF7 breast
  TGI: > 500 µM
DMS 114 small cell lung
  TGI: > 460 µM
SF-539 CNS
  TGI: > 500 µM
UACC-62 melanoma
  GI50: < 0.215 µM
P388 leukemia
  TGI: > 500 µM
SK-OV-3 ovarian
  TGI: > 500 µM
DU-145 prostate
  TGI: > 8.12 µM
SK-MEL-5 melanoma
  GI50: < 0.215 µM
U251 CNS
  TGI: > 500 µM
M19-MEL melanoma
  TGI: > 500 µM
NCI-H226 lung
  GI50: < 0.215 µM
MOLT-4 leukemia
  TGI: > 500 µM
SF-295 CNS
  GI50: 0.232 µM
PC-3 prostate
  TGI: 0.631 µM
KM20L2 colon
  TGI: > 500 µM
HCT-15 colon
  GI50: 0.456 µM
UACC-257 melanoma
  GI50: 0.231 µM
MDA-MB-231 breast
  TGI: 0.0905 µM
786-0 renal
  TGI: 0.689 µM
NCI-H460 lung
  TGI: > 316 µM

## Cc1ccc2cc3cccc(C(=O)NCCN(C)C)c3nc2c1
RXF 393 renal
  TGI: 2.73 µM
SW-620 colon
  TGI: 6.46 µM
A498 renal
  TGI: 2.37 µM
MALME-3M melanoma
  TGI: 2.49 µM
HOP-62 NSCLC
  TGI: 6.17 µM
KM12 colon
  TGI: 10 µM
SNB-75 CNS
  TGI: 4.75 µM
SK-MEL-28 melanoma
  TGI: 3.39 µM
SN12K1 renal
  TGI: 5.59 µM
HCT-116 colon
  TGI: 6.23 µM
SNB-19 CNS
  TGI: 8.1 µM
XF 498 CNS
  TGI: 3.68 µM
SF-268 CNS
  TGI: 4.03 µM
A549 NSCLC
  TGI: 5.05 µM
IGROV1 ovarian
  TGI: 9.09 µM
RPMI-8226 leukemia
  TGI: 7.42 µM
OVCAR-3 ovarian
  TGI: 5.67 µM
LOX IMVI melanoma
  TGI: 6.08 µM
K-562 leukemia
  TGI: > 31.3 µM
DMS 273 small cell lung
  TGI: 2.8 µM
SN12C renal
  TGI: 6.39 µM
HOP-92 NSCLC
  TGI: 2.75 µM
HT29 colon
  TGI: 2.67 µM
OVCAR-5 ovarian
  TGI: 4.28 µM
HOP-18 NSCLC
  TGI: 7.36 µM
OVCAR-8 ovarian
  TGI: 6.45 µM
UO-31 renal
  TGI: 3.19 µM
NCI-H23 lung
  TGI: 3.4 µM
SNB-78 CNS
  TGI: 7.78 µM
P388/ADR leukemia
  TGI: 1.46 µM
DLD-1 colon
  TGI: 8.36 µM
OVCAR-4 ovarian
  TGI: 6.11 µM
HL-60(TB) leukemia
  TGI: 2.49 µM
HCC-2998 colon
  TGI: 3.04 µM
COLO 205 colon
  TGI: 2.51 µM
EKVX NSCLC
  TGI: 3.44 µM
CAKI-1 renal
  TGI: 10.8 µM
NCI/ADR-RES ovarian
  TGI: 5.07 µM
SK-MEL-2 melanoma
  TGI: 3.55 µM
MCF7 breast
  TGI: 5.19 µM
DMS 114 small cell lung
  TGI: 2.58 µM
SF-539 CNS
  TGI: 3.57 µM
UACC-62 melanoma
  TGI: 3.16 µM
P388 leukemia
  TGI: 1.26 µM
SK-OV-3 ovarian
  TGI: 7.87 µM
SK-MEL-5 melanoma
  TGI: 2.66 µM
U251 CNS
  TGI: 9.2 µM
M19-MEL melanoma
  TGI: 3.01 µM
NCI-H226 lung
  TGI: 4.16 µM
SF-295 CNS
  TGI: 3.91 µM
KM20L2 colon
  TGI: 3.08 µM
HCT-15 colon
  TGI: 9.17 µM
CCRF-CEM leukemia
  TGI: 5.54 µM
UACC-257 melanoma
  TGI: 2.74 µM
NCI-H460 lung
  TGI: 1.94 µM
